The subject of test [1] is DmAChE, human AChE and butyrylcholinesterase. More on the design: method as in PMID 19656357. The note with it: cited from earlier work.
Test [2] relates to Anopheles gambiae G3 (susceptible). Put plainly: WHO filter paper contact toxicity bioassay. In kind it is in vivo. The note with it: WHO filter paper assay, 1 h exposure, mortality at 24 h, read-out: LC50 (95% CI). On the procedure:
(§1) Contact toxicity bioassays were performed on both strains of Anopheles gambiae, G3 (susceptible) and AKRON (pyrethroid and anticholinesterase resistance) according to WHO protocol. Adult female mosquitoes were 2–5 days of age and non-blood fed at the time of experimentation. Five concentrations of inhibitor dissolved in ethanol were prepared and treated by applying 2 mL of each concentration on a 180 cm^2 (12 cm×15 cm) paper. Papers were left to dry for 24 hours prior to use. Mosquitoes were chilled for three minutes on ice, after which 25 females were placed in the WHO kit holding chamber to recover for one hour. Mosquitoes were then moved to the treatment chamber, which contain the treated paper, and exposed for one hour. After the one-hour exposure, the mosquitoes were transferred back to the holding chamber and maintained on 10% sugar solution for 24 hrs. Each concentration was repeated in triplicate. […] Three LC50 values were obtained and the mean LC50 value was used for statistical analysis.
(§2) For all toxicity assays, control mortality was corrected for using Abbots formula [19]; where corrected percent mortality = (% alive in control–% alive in treated) /% alive in control.

In test [3] the test system is Anopheles gambiae AKRON (pyrethroid and anticholinesterase resistance). Put plainly: WHO filter paper contact toxicity bioassay. In kind it is in vivo. As to conditions: WHO filter paper assay, 1 h exposure, mortality at 24 h, read-out: LC50 (95% CI). On the procedure: as §1, §2
Test [4] concerns sodium channels in neonatal rat cortical neurons. Nature of the test: Patch clamp of rat cortical neurons, sodium currents. In kind it is cell-based. On the procedure:
Rat cortical neurons (purchased from Lonza, Walkersville, MD, USA) were placed on poly-lysine coated glass cover slips in 35 mm dishes, and cultured in primary neuron basal medium with added 2% neural grown factor and 1% glutamine (from Lonza). The medium was half changed every 3 days, and the cells were used at 6–12 days. The neurons had dendrites and axons and the diameters of the somata were about 15–20 µm. Cells were cultured on cover slips and were immersed in 35 mm Petri dishes filled with room temperature extracellular saline. Patch pipettes were pulled from borosilicate glass capillaries with filament (BF150-86-10, Sutter Instrument, Novato CA, USA) on a P-1000 Flaming/Brown micropipette puller (Sutter Instrument). Extracellular solution was the same regardless of the target ion channel and contained: 140 mM NaCl, 5 mM KCl, 2 mM MgCl2, 2 mM CaCl2, 10 mM glucose, and 10 mM HEPES (pH = 7.4). Intracellular patch solution for potassium channel recordings consisted of: 140 mM KF, 10 mM NaCl, 2 mM MgCl2, and 10 mM HEPES (pH = 7.2). Intracellular patch solution for sodium channel recordings consisted of: 140 mM CsCH3SO3 10 mM NaCl, 2 mM MgCl2, 10 mM HEPES (pH = 7.2), where CsCH3SO3 was used to eliminate potassium currents during sodium channel analysis. The patch electrodes had resistances of 5–7 MOhms.
Patch clamp recordings were performed with a 40x/0.80W water immersion objective (working distance 3.5 mm) using a forced-air-cooled Photometrics Evolve 512/CCD97 camera system. Following gigaseal formation, the membrane was ruptured through a brief, manual suction of the electrode, or by a 2 msec long zap pulse. Currents were amplified with the use of a patch-clamp amplifier (Axopatch 200B, Molecular Devices LLC, Sunnyvale, CA, USA) and processed for analysis via A/D-converter (Digidata 1440A, Molecular Devices LLC). Recordings underwent series resistance compensation, low-pass filtering at 1 kHz, and were sampled at 10 kHz or 100 kHz for potassium and sodium currents, respectively. For recording and analyzing data, pClamp 10.0 software (Molecular Devices LLC) was used.
A general note: In patch-clamp work, channel activity is measured electrically.

Another test concerns acetylcholinesterase. Nature of the test: AChE inhibition, Ellman assay, summary statements across enzymes. The note with it: abstract. Format: biochemical. From the text:
In vitro biochemical assays utilized five acetylcholinesterase (AChE) enzymes. Recombinant human AChE (hAChE) was purchased from a commercial source (lyophilized powder, Sigma C1682, St. Louis, MO, USA). Homogenates to prepare Anopheles gambiae AChE (AgAChE) were obtained from the wild type G3 strain and the resistant AKRON strain (BEI Resources; http://www.beiresources.org/). AKRON mosquitoes (from Benin and donated by M. Akogbeto) have both knockdown resistance (kdr) to pyrethroids (L1014F sodium channel mutation) and the G119S AChE mutation (ace-1R), which confers resistance to carbamates, [15]. Both strains were cultured in the Emerging Pathogens Institute, University of Florida, Gainesville, FL, USA from eggs provided by the Center for Disease Control, Atlanta, GA, USA. Homogenates were also used to prepare Aedes aegypti AChE (AeAChE) from mosquitoes provided by the CMAVE, USDA-ARS, Gainesville, FL, USA; Musca domestica AChE (MdAChE) from flies cultured in the Department of Entomology and Nematology, Medical Entomology Laboratory, University of Florida, Gainesville, FL, USA); and Drosophila melanogaster AChE (DmAChE) from flies (Oregon-R strain) cultured in the Emerging Pathogens Institute, University of Florida, Gainesville, FL, USA. Homogenate enzymes were prepared from groups of ten non-blood fed adult female mosquitoes, five whole bodied Drosophila, or three Musca heads homogenized in 1 mL of ice-cold sodium phosphate buffer (0.1 M sodium phosphate, pH 7.8) with an electric motor driven glass tissue homogenizer. The homogenate was centrifuged at 5000×g using a Sorvall Fresco refrigerated centrifuge at 4 °C for 5 minutes. […]
Inhibition of AChE was determined using the Ellman assay and was based on the method outlined in Carlier et al.. […] Changes in absorbance were recorded by a DYNEX Triad spectrophotometer (DYNEX Technologies, Chantilly, VA, USA) at 405 nm. Enzyme concentrations used were within the linear range, therefore eliminating the need for protein quantification.
(In Ellman's method for cholinesterases, released thiocholine reacts with DTNB.)

Values after ≈ are worked out from the molar mass of the structure shown. A value given as a limit tells only on which side of the number the result lay.

For orientation: LC50 means the concentration that kills 50% of the test population. The term IC50 denotes the point on the concentration scale where inhibition reaches its midpoint. `CCN(CC)C(=O)c1cccc(C)c1` [DEET, N, N-diethyl-meta-toluamide]: the “concentrations showing inhibitory effects” value in test [1] was 0.1 to 10 mM. Moreover, the values for the LC50 in test [2] and in test [3] were 1900 µg/mL (≈ 9.93 mM) and 2700 µg/mL (≈ 14.1 mM), respectively. Also, in test [4] (1 mM), the “block of inward sodium currents in words” value is given as “completely blocked”. For the same compound, the “sodium current amplitude restored by washout” value in test [4] (after 1 mM block) is given as “approximately 50%”. Further, the IC50 is about 0.7 mM in test [4] (read-out: IC50 against sodium channels); 6 to 12 mM at acetylcholinesterase (Drosophila melanogaster, Musca domestica, and human acetylcholinesterases). This compound also gave an acetylcholinesterase inhibition in the test with acetylcholinesterase (10 mM) of under 10%.

The record behind these values is paper PMC4125160, “Neurotoxicity and Mode of Action of N, N-Diethyl-Meta-Toluamide (DEET)” (PLoS ONE, 2014).
